Results taken from US8614324B2, “Filamin A binding anti-inflammatory and analgesic” (priority 2008, dated 2013).

Experiments:
filamin A = filamin A (Homo sapiens, UniProt P21333); details: read-out: affinity of binding to filamin A; cited from earlier work
[1] = molecular target: Bn-VAKGL pentapeptide of filamin A (FLNA) (Homo sapiens, UniProt P21333); assay: FITC-NLX-based FLNA screening assay (FLNA peptide binding assay); details: 10 nM FITC-NLX, read-out: Percent inhibition of FITC-NLX binding
Method: The final assay volume is 100 μl.
Compounds are tested in triplicate or quadruplicate.

Chain of filamin A (P21333 whole entry): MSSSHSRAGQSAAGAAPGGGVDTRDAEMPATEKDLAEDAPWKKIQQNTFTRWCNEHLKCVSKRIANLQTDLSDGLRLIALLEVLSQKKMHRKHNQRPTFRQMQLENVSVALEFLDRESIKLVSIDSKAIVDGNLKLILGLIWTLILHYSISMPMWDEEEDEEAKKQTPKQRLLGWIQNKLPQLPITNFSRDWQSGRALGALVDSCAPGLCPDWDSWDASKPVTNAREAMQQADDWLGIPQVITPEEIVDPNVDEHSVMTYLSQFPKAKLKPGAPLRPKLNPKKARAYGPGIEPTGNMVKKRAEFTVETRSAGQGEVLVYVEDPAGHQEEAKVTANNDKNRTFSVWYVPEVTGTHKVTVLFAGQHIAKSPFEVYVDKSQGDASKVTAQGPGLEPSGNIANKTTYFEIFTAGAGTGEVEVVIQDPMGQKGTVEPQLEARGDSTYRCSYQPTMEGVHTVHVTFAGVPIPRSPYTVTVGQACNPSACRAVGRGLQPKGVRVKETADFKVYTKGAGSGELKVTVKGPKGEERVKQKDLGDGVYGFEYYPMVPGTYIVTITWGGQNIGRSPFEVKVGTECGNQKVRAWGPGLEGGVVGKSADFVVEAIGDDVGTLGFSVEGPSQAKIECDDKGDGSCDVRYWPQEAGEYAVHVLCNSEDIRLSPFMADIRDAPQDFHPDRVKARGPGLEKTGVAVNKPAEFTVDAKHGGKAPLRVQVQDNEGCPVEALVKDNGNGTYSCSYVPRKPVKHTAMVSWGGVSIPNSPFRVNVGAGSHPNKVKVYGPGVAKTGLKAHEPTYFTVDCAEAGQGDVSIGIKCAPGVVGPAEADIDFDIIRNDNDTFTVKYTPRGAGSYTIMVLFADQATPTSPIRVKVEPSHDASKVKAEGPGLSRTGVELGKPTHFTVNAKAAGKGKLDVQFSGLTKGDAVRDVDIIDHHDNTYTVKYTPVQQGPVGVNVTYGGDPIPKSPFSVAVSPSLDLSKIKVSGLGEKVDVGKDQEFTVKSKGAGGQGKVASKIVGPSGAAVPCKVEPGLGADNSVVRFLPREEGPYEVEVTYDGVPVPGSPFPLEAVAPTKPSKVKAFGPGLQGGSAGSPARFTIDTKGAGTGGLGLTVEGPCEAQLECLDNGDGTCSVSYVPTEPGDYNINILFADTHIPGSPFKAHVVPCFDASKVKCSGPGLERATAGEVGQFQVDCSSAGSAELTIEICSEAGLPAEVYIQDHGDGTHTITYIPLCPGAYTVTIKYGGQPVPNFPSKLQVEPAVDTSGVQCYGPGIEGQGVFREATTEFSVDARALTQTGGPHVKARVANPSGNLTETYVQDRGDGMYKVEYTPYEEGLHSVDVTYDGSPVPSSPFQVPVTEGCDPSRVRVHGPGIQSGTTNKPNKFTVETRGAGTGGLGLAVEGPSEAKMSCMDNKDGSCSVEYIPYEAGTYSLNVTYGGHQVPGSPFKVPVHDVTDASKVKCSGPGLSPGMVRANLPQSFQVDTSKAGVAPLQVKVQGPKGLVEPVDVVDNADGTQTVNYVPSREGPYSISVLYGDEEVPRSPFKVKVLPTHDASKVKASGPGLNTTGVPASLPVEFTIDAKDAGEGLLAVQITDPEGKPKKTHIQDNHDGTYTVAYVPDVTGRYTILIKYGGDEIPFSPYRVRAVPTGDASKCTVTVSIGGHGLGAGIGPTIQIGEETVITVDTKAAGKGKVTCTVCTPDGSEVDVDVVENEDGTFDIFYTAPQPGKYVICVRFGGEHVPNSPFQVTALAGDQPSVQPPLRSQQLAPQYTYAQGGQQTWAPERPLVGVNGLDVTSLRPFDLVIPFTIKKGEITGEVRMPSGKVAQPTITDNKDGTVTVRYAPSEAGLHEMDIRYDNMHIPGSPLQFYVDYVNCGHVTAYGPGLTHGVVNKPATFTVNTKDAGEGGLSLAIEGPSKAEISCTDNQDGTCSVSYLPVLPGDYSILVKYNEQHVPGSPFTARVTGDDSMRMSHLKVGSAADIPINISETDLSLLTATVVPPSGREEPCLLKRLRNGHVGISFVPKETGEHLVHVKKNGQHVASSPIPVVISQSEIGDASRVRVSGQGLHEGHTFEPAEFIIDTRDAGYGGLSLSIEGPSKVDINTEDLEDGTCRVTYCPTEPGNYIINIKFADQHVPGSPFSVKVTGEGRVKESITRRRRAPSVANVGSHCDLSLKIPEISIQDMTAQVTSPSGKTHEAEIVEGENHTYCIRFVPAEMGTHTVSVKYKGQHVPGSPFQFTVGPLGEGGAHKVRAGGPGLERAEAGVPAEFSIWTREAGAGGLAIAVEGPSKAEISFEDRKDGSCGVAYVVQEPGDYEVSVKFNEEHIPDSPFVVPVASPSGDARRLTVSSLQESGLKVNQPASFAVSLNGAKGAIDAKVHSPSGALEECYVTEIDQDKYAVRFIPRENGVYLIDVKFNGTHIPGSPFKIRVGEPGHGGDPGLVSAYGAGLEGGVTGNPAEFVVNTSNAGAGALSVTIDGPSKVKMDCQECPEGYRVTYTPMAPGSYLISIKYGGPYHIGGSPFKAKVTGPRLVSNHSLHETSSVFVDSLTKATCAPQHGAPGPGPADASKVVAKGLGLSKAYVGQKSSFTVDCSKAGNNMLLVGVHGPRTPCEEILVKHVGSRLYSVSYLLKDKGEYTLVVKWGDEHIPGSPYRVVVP

In the case of `C=CCN1CC[C@]23c4c5ccc(O)c4O[C@H]2C(=O)CC[C@@]3(O)[C@H]1C5` [NLX, naloxone, reference compound], the Kd (filamin A) is listed as roughly 4 pM, the inhibition at 0.01 µM ([1]; 0.01 μM compound) is listed as 40.6% and the inhibition at 0.1 µM ([1]; 0.1 μM compound) is listed as 47.8%. The inhibition at 1 µM ([1]; 1 μM compound) was 51.5%.
